Measured values reported in US20090227632A1, “PHARMACEUTICAL COMPOSITION COMPRISING, IN COMBINATION, SAREDUTANT AND A SELECTIVE SEROTONIN REUPTAKE INHIBITOR OR A SEROTONIN/NOREPINEPHRINE REUPTAKE INHIBITOR” (priority 2006, published 2009).

Test system: rat
Test: DRL-72 s (Differential Reinforcement of Low-rate-72 seconds) in-vivo rat test
Details: for % reinforced presses/total number of presses: n = 8 rats, test duration 1 hour, mean±SEM, solvent control 3.07 ± 0.48%; for minimum active dose in the DRL-72 s test: compound alone, intraperitoneally, rat
Text: The in-vivo rat test DRL-72 s (Differential Reinforcement of Low-rate-72 seconds) is used according to the technique described by C. Louis et al., Neuropsychopharmacology, 2006, 1-8.
Effects compared with regard to the percentage of rewards obtained (reinforced presses) with respect to the total number of presses by the rat after intraperitoneal administration of the compound A alone, of the compound B alone and of the compound A+compound B combination versus the control (solvent alone).
Beforehand, the minimum active doses of the compound A alone and of the compound B alone in the DRL-72 s test were determined, namely: • compound A: 10 mg/kg intraperitoneally; • compound B: 5 mg/kg intraperitoneally.
The compound A alone at the dose of 3 mg/kg and the compound B alone at the dose of 2.5 mg/kg were dissolved in a 0.9% (weight/volume) aqueous sodium chloride solution comprising 0.1% (v/v) Tween 80® and administered intraperitoneally at a final volume of 1 ml/kg.
The combination was administered intraperitoneally by two simultaneous administrations of the compound A (3 mg/kg) and then of the compound B (2.5 mg/kg).
The doses of the compounds are expressed in the free base form.
For the requirements of the test, the effect of the compound A alone, the effect of the compound B alone and the effect of the compound A+compound B combination, compared with the effect of the solvent (control), are measured for each animal.
Each rat (n=8) thus receives four injections spread out over time, namely the solvent (control), the compound A alone, the compound B alone and the compound A+compound B combination.
The results obtained are collated in Table I and are expressed as a percentage of rewards obtained with respect to the total number of presses over the duration of the test (1 hour), in the mean±SEM (standard error of the mean) form.

## CNCCC(Oc1ccc(C(F)(F)F)cc1)c1ccccc1 (racemic) [Compound B, (±)-N-methyl-3-phenyl-3-[4-(trifluoromethyl)phenoxy]propan-1-amine]
Compound B alone 2.5 mg/kg i.p.
  percentage number of rewards obtained with respect to the control (in words): does not modify
Compound B alone 2.5 mg/kg intraperitoneally
  % reinforced presses/total number of presses: 3.82 ± 0.76%
  minimum active dose in the DRL-72 s test: 5 mg/kg

## CC(=O)NC1(c2ccccc2)CCN(CC[C@H](CN(C)C(=O)c2ccccc2)c2ccc(Cl)c(Cl)c2)CC1 [Compound A, (S)-(−)-N-[4-(4-Acetamido-4-phenylpiperidin-1-yl)-2-(3,4-dichlorophenyl)butyl]-N-methylbenzamide]
Compound A alone 3 mg/kg i.p., increase not statistically significant
  percentage number of rewards obtained with respect to the control (in words): only slightly modifies
Compound A alone 3 mg/kg intraperitoneally
  % reinforced presses/total number of presses: 6.41 ± 1.73%
  minimum active dose in the DRL-72 s test: 10 mg/kg
